Laboratory results: patent publication US20240294517A1, “2-[3-[1 [(QUINAZOLIN-4-YL)AMINO]ETHYL]PYRAZIN-2-YL]THIAZOLE-5-CARBONITRILE DERIVATIVES AND SIMILAR COMPOUNDS AS PESTICIDES” (SYNGENTA CROP PROTECTION AG, priority 2021, published 2024)

Legend:
Type in all cases: in vivo
Chilo suppressalis = experiment: Activity against Chilo suppressalis (striped rice stemborer), artificial diet in 24-well plates; conditions: 144 h, application rate 200 ppm, L2 larvae, 6 days after infestation
Experimental: 24-well microtiter plates with artificial diet were treated with aqueous test solutions prepared from 10′000 ppm DMSO stock solutions by pipetting. After drying, the plates were infested with L2 larvae (6-8 per well). The samples were assessed for mortality, anti-feeding effect, and growth inhibition in comparison to untreated samples 6 days after infestation. Control of Chilo suppressalis by a test sample is given when at least one of the categories mortality, anti-feedant effect, and growth inhibition is higher than the untreated sample.

Spodoptera littoralis = experiment: Activity against Spodoptera littoralis (Egyptian cotton leaf worm), sprayed cotton leaf discs; conditions: foliar, 72 h, application rate 200 ppm, L1 larvae, 3 days after infestation
Experimental: Cotton leaf discs were placed onto agar in 24-well microtiter plates and sprayed with aqueous test solutions prepared from 10′000 ppm DMSO stock solutions. After drying the leaf discs were infested with five L1 larvae. The samples were assessed for mortality, anti-feeding effect, and growth inhibition in comparison to untreated samples 3 days after infestation. Control of Spodoptera littoralis by a test sample is given when at least one of the categories mortality, anti-feedant effect, and growth inhibition is higher than the untreated sample.

Myzus persicae [1] = experiment: Activity against Myzus persicae (green peach aphid), intrinsic activity; conditions: 120 h, test rate 12 ppm, 5 days after infestation
Experimental: Test compounds prepared from 10′000 ppm DMSO stock solutions were applied by pipette into 24-well microtiter plates and mixed with sucrose solution. The plates were closed with a stretched Parafilm. A plastic stencil with 24 holes was placed onto the plate and infested pea seedlings were placed directly on the Parafilm. The infested plate was closed with a gel blotting paper and another plastic stencil and then turned upside down. The samples were assessed for mortality 5 days after infestation.

Diabrotica balteata = experiment: Activity against Diabrotica balteata (corn root worm), sprayed maize sprouts; conditions: 96 h, application rate 200 ppm, L2 larvae, 4 days after infestation, read-out: effect in at least one of the two categories (mortality or growth inhibition)
Experimental: Maize sprouts placed onto an agar layer in 24-well microtiter plates were treated with aqueous test solutions prepared from 10′000 ppm DMSO stock solutions by spraying. After drying, the plates were infested with L2 larvae (6 to 10 per well). The samples were assessed for mortality and growth inhibition in comparison to untreated samples 4 days after infestation.
(§1) Activity of compound P5 according to the preparatory examples and of compound P.118 from WO 21/083936 against Plutella xylostella ([…]) and Diabrotica balteata (Example B2) is summarized in Table B9.

Plutella xylostella = experiment: Activity against Plutella xylostella (diamond back moth), artificial diet; conditions: 192 h, application rate 200 ppm, eggs, 8 days after infestation, read-out: effect in at least one of the two categories (mortality or growth inhibition)
Experimental: 24-well microtiter plates with artificial diet were treated with aqueous test solutions prepared from 10′000 ppm DMSO stock solutions by pipetting. After drying, Plutella eggs were pipetted through a plastic stencil onto a gel blotting paper and the plate was closed with it. The samples were assessed for mortality and growth inhibition in comparison to untreated samples 8 days after infestation.
as §1

Myzus persicae [2] = experiment: Activity against Myzus persicae (green peach aphid), feeding/contact activity; conditions: 144 h, application rate 200 ppm, mixed ages, 6 days after infestation
Experimental: Sunflower leaf discs were placed onto agar in a 24-well microtiter plate and sprayed with aqueous test solutions prepared from 10′000 ppm DMSO stock solutions. After drying, the leaf discs were infested with an aphid population of mixed ages. The samples were assessed for mortality 6 days after infestation.

[3] = test system: Frankliniella occidentalis; experiment: Activity against Frankliniella occidentalis (western flower thrips), sprayed sunflower leaf discs; conditions: foliar, 168 h, application rate 200 ppm, mixed ages, 7 days after infestation
Experimental: Sunflower leaf discs were placed on agar in 24-well microtiter plates and sprayed with aqueous test solutions prepared from […] stock solutions. After drying the leaf discs were infested with a Frankliniella population of mixed ages. The samples were assessed for mortality 7 days after infestation.

C[C@H](Nc1ncnc2c(Cl)cc(C(F)(F)F)cc12)c1ncnn1-c1ncc(C#N)s1 [P15, 2-[5-[(1S)-1-[[8-chloro-6-(trifluoromethyl)quinazolin-4-yl]amino]ethyl]-1,2,4-triazol-1-yl]thiazole-5-carbonitrile]
≥ 80%: percent control (mortality, anti-feedant effect or growth inhibition) at 200 ppm (Chilo suppressalis) | percent control (mortality, anti-feedant effect or growth inhibition) at 200 ppm (Spodoptera littoralis) | mortality at 12 ppm (Myzus persicae [1]) | percent effect (mortality or growth inhibition) at 200 ppm (Diabrotica balteata) | percent effect (mortality or growth inhibition) at 200 ppm (Plutella xylostella)

C[C@H](Nc1ncnc2c(Br)cc(Br)cc12)c1ncnn1-c1ncc(C#N)s1 [P14, 2-[5-[(1S)-1-[(6,8-dibromoquinazolin-4-yl)amino]ethyl]-1,2,4-triazol-1-yl]thiazole-5-carbonitrile]
≥ 80%: percent control (mortality, anti-feedant effect or growth inhibition) at 200 ppm (Chilo suppressalis) | mortality at 200 ppm (Myzus persicae [2]) | percent control (mortality, anti-feedant effect or growth inhibition) at 200 ppm (Spodoptera littoralis) | percent effect (mortality or growth inhibition) at 200 ppm (Diabrotica balteata) | percent effect (mortality or growth inhibition) at 200 ppm (Plutella xylostella)

C[C@H](Nc1ncnc2c(Cl)cc(I)cc12)c1ncnn1-c1ncc(C#N)s1 [P20, 2-[5-[(1S)-1-[(8-chloro-6-iodo-quinazolin-4-yl)amino]ethyl]-1,2,4-triazol-1-yl]thiazole-5-carbonitrile]
≥ 80%: percent control (mortality, anti-feedant effect or growth inhibition) at 200 ppm (Chilo suppressalis) | percent control (mortality, anti-feedant effect or growth inhibition) at 200 ppm (Spodoptera littoralis) | percent effect (mortality or growth inhibition) at 200 ppm (Diabrotica balteata) | percent effect (mortality or growth inhibition) at 200 ppm (Plutella xylostella) | mortality at 200 ppm [3]
